# Source: US10682409B2, “Therapeutic treatment” (priority 2012, dated 2020)
# Legend:
# [1] = Examples 3-11: weight and height (velocity, percentile curve, course) of ADHD Patients A-H; format: in vivo, human
# Procedure: In an embodiment, a therapeutically effective amount of a therapeutic compound disclosed herein increases the weight or height of an individual is determined by an increase in the individual's weight or height velocity as compared to an individual nor receiving a therapeutic compound for appetite reduction. In an embodiment, weight and/or height velocity can be calculated by taking measurements of height and/or weight of an individual over a period of time and measuring an increase or decrease in an individual's height and/or weight over the period of time. In an embodiment, weight velocity is calculated by taking three time points, time 0 upon initiation of medication to treat ADHD, time 1 addition of an appetite stimulant, time 2 the last data point after initiation of combination treatment. In an embodiment, a formula to calculate weight and height velocity for stimulant alone is (weightT1−weight T0)/days from Time 0 to time 1. In an embodiment, a formula to calculate weight velocity for combination treatment is (weightT2−weight T1)/days from time 1 to time 2. In an embodiment, to evaluate whether weight velocity increased after addition of an appetite stimulant, the weight velocity of time 0 to time 1 is compared to the weight velocity from time 1 to time 2. In an embodiment, height velocity is calculated by taking three time points, time 0 upon initiation of medication to treat ADHD, time 1 addition of an appetite stimulant, time 2 the last data point after initiation of combination treatment. The formula to calculate height velocity for stimulant alone is (weightT1−weight T0)/days from Time 0 to time 1. The formula to calculate height velocity for combination treatment is (weightT2−weight T1)/days from time 1 to time 2. In an embodiment, to evaluate whether height velocity increased after addition of an appetite stimulant, the height velocity of time 0 to time 1 is compared to the height velocity from time 1 to time 2.
# Eight patients, identified as patients A-H, that came in suffering from ADHD were treated for ADHD. […] Each patient was then prescribed an appetite simulant to be taken along with the amphetamine or methylphenidate. The patients' weight, height and attentiveness were then followed during the course of treatment.
# The age range of the patients was from 6-15 years of age, with a mean age at the start of treatment for ADHD of 8.4 years of age. The mean age at the start of the combination treatment wherein the patient was administered an amphetamine or methylphenidate and an appetite stimulant was 10.3 years of age. The mean treatment period for the eight patients was 1,108 days with a mean of 2.55 ADHD medication changes during the treatment period. Attentiveness in the eight patients was measured using CGI-S and CGI-I. Patients weight and height velocity were measured to identify a difference in weight and height gain prior to and after addition of an appetite stimulant to the treatment for ADHD. Weight velocity was calculated by taking three time points, time 0 upon initiation of medication to treat ADHD, time 1 addition of an appetite stimulant, time 2 the last data point after initiation of combination treatment. The formula to calculate weight velocity for stimulant alone is (weightT1−weight T0)/days from Time 0 to time 1. The formula to calculate weight velocity for combination treatment is (weightT2−weight T1)/days from time 1 to time 2.
# [2] = cited from earlier work
# [3] = Patient A, Periactin 4 mg b.i.d. added to Concerta from day 661, FIG. 4
# [4] = Patient G, Focalin XR 15 mg and Periactin 4 mg b.i.d. from day 546, FIG. 16
smiles,measurement,setting,value
"CN1CCC(=C2c3ccccc3C=Cc3ccccc32)CC1.Cl [Periactin, 4-(5H-dibenzo[a,d]cyclohepten-5-ylidene)-1-methylpiperidine hydrochloride]",height course,[1]; [3],increase in height began to accelerate
same,weight course,[1]; [3],began to gain weight
same,weight course,"[1]; Patient B, Focalin XR 15 mg and Periactin 4 mg b.i.d. from day 865, FIG. 6",began to gain weight
same,weight course,"[1]; Patient B, Focalin XR 30 mg with Periactin, FIG. 6",continued to increase
same,weight course,"[1]; Patient C, Concerta 36 mg and Periactin 4 mg b.i.d. from day 350, FIG. 8",began to gain weight
same,weight course,"[1]; Patient D, Concerta 18 mg and Periactin 2 mg in the morning from day 23, FIG. 10",began to gain weight at an accelerated pace
same,weight course,"[1]; Patient D, Concerta increased to 27 mg with Periactin",only a slight decrease in the ability of Patient D to continue to gain weight
same,height course,"[1]; Patient D, combination of Concerta and Periactin, lagged initiation, FIG. 10",increased the growth rate
same,weight course,"[1]; Patient E, Focalin XR 20 mg and Periactin 4 mg in the morning, FIG. 12",began to gain weight at an accelerated pace
same,pace of weight gain,"[1]; Patient E, Periactin administered b.i.d. from day 836 with Focalin XR",increased
same,weight course,"[1]; Patient F, Daytrana patch 30 mg and Periactin 2 mg b.i.d. from day 1547, FIG. 14",began to gain weight at an accelerated pace
same,pace of weight gain,"[1]; Patient F, Periactin increased to 4 mg b.i.d. on day 1950 with Daytrana patch",increased
same,height course,[1]; [4],began to gain height at an accelerated pace
same,weight course,[1]; [4],continued to gain weight at a good pace
same,weight course,"[1]; Patient H, Vvyanase 40 mg and Periactin 2 mg b.i.d. from day 109, FIG. 18",began to gain weight
same,appetite when the dose of the ADHD drug was increased,"[1]; individual patient of the example (B, D, E, F) on Periactin",without a concomitant loss of appetite
same,time to reach peak plasma levels,[2]; after administration,1 to 3 h
same,half-life,[2]; in vivo,8 h
